Four molecules from the kinase profiling compilation of Christmann-Franck et al. (2016) can be followed below.

Among the targets are BMX (human) (UniProt P51813); CSNK1G1 (human) (UniProt Q9HCP0); STK11 (human) (UniProt Q15831); FRK (human) (UniProt P42685); GSK3A (human) (UniProt P49840); CSNK1G2 (human) (UniProt P78368); MET (human) (UniProt P08581); FER (human) (UniProt P16591); AAK1 (human) (UniProt Q2M2I8); CAMK2A (human) (UniProt Q9UQM7); MYLK2 (human) (UniProt Q9H1R3); HCK (human) (UniProt P08631); PLK4 (human) (UniProt O00444); RET (human) (UniProt P07949); AURKB (human) (UniProt Q96GD4); CSNK1A1L (human) (UniProt Q8N752); CLK2 (human) (UniProt P49760); CSNK1D (human) (UniProt P48730); NTRK3 (human) (UniProt Q16288); TLK1 (human) (UniProt Q9UKI8); STK38L (human) (UniProt Q9Y2H1); ITK (human) (UniProt Q08881); PRKAA1 (human) (UniProt Q13131); TESK1 (human) (UniProt Q15569); BRSK2 (human) (UniProt Q8IWQ3); PKN2 (human) (UniProt Q16513); SRPK1 (human) (UniProt Q96SB4); BMP2K (human) (UniProt Q9NSY1); EPHA3 (human) (UniProt P29320); SRC (human) (UniProt P12931); EPHA2 (human) (UniProt P29317); FLT1 (human) (UniProt P17948).

What all share (assay): KINOMEscan competition binding
What all share (details): compound 10.0 µM

In test [1] the test system is EIF2AK4 KD2 (human), Q9P2K8 [S808G].

Chain of CSNK1G1 (human) (Q9HCP0 whole entry, looked up): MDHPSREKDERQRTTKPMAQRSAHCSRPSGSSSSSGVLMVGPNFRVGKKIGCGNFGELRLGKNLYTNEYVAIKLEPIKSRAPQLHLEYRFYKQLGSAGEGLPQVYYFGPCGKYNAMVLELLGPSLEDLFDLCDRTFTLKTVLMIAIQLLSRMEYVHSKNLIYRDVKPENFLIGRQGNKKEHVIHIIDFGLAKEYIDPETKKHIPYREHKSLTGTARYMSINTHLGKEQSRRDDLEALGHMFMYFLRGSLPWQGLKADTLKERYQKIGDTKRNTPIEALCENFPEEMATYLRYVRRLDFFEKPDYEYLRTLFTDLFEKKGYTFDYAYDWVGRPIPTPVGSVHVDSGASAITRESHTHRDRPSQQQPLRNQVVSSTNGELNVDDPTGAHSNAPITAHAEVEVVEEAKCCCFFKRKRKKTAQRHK
Chain of CAMK2A (human) (Q9UQM7 whole entry, looked up): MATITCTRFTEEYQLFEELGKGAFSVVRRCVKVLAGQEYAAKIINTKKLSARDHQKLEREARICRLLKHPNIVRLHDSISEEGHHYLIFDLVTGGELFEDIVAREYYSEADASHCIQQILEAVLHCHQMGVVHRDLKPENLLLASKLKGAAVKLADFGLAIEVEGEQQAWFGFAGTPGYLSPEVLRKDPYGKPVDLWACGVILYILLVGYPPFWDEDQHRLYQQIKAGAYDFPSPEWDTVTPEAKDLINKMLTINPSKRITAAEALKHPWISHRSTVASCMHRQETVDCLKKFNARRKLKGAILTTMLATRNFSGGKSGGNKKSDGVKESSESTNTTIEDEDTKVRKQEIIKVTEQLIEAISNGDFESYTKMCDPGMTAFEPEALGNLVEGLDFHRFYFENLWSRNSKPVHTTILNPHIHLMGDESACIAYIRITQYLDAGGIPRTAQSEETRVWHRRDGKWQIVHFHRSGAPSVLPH
Chain of GSK3A (human) (P49840 whole entry, looked up): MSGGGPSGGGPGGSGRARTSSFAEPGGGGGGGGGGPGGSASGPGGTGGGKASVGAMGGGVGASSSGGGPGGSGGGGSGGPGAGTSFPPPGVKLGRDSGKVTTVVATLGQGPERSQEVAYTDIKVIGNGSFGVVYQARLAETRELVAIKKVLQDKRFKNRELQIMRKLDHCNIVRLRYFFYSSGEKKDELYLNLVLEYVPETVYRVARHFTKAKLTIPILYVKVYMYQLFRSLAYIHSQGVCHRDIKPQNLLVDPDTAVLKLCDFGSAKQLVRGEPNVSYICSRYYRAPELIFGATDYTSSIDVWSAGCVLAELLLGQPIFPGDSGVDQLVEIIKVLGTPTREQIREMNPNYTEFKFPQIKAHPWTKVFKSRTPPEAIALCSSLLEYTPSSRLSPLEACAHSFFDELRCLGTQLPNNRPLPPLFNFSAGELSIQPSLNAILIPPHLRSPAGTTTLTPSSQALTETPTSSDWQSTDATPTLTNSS
Chain of STK38L (human) (Q9Y2H1 whole entry, looked up): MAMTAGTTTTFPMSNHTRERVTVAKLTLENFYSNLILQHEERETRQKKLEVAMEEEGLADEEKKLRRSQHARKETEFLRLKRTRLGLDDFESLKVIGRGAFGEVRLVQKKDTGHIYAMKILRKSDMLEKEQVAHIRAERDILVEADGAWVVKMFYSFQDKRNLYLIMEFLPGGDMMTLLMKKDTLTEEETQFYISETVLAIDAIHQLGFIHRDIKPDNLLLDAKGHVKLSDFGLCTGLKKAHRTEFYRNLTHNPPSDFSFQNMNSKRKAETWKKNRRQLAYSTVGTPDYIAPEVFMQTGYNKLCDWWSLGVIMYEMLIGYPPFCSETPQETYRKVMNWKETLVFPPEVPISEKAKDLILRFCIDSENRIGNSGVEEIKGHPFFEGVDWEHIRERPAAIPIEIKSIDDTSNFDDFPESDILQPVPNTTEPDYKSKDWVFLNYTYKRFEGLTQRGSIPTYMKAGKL
Chain of CLK2 (human) (P49760 whole entry, looked up): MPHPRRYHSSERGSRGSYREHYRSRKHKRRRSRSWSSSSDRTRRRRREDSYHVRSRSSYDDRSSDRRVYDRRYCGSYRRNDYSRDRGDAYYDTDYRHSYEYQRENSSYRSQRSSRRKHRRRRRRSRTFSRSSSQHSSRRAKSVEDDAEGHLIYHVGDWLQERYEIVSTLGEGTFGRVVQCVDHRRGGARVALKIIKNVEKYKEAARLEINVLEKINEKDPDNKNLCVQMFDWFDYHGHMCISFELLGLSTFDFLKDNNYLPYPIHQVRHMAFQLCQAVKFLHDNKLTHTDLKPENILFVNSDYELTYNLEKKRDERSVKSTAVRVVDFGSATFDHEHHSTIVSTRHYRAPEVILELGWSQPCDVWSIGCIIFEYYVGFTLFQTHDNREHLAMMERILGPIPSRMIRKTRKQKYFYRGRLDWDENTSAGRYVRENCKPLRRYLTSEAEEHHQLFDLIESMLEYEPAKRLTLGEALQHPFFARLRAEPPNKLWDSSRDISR
Chain of AAK1 (human) (Q2M2I8 whole entry, looked up): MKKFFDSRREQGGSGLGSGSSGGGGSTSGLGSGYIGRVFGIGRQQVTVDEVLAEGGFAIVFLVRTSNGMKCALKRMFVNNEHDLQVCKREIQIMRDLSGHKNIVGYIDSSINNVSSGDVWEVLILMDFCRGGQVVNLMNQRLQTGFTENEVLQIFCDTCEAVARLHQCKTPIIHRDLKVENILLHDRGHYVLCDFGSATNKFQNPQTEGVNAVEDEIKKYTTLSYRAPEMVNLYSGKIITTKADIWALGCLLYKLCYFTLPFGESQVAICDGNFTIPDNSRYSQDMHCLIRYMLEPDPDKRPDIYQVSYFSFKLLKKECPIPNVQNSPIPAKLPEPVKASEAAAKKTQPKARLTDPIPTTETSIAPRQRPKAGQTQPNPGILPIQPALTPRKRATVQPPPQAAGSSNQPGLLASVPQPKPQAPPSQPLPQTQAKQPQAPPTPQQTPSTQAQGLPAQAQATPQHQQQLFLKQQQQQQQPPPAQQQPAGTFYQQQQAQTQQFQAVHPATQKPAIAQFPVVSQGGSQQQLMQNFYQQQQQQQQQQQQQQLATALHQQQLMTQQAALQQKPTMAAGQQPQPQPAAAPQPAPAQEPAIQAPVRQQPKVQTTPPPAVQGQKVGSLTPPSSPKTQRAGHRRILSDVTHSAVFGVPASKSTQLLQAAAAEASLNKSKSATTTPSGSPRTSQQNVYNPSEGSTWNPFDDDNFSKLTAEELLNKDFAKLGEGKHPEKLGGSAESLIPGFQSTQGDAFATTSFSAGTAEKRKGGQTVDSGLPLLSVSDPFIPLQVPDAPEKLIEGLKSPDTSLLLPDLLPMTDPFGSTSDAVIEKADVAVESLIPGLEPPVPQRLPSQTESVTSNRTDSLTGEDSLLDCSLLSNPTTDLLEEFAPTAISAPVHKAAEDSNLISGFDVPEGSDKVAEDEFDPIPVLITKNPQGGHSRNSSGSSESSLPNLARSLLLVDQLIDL
Chain of PRKAA1 (human) (Q13131 whole entry, looked up): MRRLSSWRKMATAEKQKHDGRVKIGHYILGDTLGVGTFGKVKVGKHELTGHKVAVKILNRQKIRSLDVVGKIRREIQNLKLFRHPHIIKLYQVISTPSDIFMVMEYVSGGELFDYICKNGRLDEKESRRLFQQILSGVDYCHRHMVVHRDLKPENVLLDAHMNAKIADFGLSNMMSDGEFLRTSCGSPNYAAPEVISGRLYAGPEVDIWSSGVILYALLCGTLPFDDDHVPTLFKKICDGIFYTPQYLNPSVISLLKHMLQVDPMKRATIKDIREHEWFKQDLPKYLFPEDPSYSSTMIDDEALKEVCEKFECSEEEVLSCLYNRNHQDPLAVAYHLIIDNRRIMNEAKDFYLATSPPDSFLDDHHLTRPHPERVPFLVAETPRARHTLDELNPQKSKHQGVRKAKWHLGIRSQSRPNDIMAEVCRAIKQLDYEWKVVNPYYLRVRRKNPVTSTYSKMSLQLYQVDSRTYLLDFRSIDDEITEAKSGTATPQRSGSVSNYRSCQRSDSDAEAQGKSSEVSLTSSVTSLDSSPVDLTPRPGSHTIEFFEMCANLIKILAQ
Chain of CSNK1D (human) (P48730 whole entry, looked up): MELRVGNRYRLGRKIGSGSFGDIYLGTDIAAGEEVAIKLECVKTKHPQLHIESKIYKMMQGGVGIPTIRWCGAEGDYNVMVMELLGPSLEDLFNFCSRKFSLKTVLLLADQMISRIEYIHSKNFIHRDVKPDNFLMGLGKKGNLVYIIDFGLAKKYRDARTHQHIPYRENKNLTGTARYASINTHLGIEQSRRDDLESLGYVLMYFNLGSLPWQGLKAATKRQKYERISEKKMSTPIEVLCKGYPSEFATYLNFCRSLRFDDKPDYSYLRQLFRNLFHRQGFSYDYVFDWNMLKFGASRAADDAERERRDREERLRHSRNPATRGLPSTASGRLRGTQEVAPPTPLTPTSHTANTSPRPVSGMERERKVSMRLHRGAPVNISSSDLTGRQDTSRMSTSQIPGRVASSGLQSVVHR
Chain of STK11 (human) (Q15831 whole entry, looked up): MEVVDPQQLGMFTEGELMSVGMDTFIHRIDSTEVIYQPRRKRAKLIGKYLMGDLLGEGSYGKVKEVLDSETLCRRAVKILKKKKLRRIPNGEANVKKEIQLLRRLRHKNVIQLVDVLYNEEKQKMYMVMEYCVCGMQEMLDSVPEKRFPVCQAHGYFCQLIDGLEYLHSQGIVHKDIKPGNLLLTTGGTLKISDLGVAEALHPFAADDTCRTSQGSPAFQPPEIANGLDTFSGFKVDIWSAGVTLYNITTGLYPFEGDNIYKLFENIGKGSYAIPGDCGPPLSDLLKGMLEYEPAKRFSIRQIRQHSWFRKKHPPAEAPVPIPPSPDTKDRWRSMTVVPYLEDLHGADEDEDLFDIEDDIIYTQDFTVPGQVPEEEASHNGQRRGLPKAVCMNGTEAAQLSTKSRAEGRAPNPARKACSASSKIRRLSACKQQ

Take `NC(=O)Nc1sc(-c2ccc(F)cc2)cc1C(N)=O`: the “kinase still bound, per cent of control” value was “no effect (inactive)” at BMX (human); “no effect (inactive)” at CSNK1G1 (human); 0% on STK11 (human); “no effect (inactive)” on FRK (human); “no effect (inactive)” at GSK3A (human); “no effect (inactive)” at CSNK1G2 (human). In addition, the “kinase still bound, per cent of control” value at MET (human) is “no effect (inactive)”; at FER (human), “no effect (inactive)”; at AAK1 (human), 0%.

`Cc1cc(Nc2cc(N3CCN(C)CC3)nc(Sc3ccc(NC(=O)C4CC4)cc3)n2)[nH]n1`: the “kinase still bound, per cent of control” value at CSNK1G1 (human) is “no effect (inactive)”; at CAMK2A (human), “no effect (inactive)”; at STK11 (human), 0%; at MYLK2 (human) it was 0%; on HCK (human) it was “no effect (inactive)”; on PLK4 (human), 0%. Besides, the kinase still bound, per cent of control was 0% at RET (human); 0% at AURKB (human); “no effect (inactive)” on GSK3A (human); “no effect (inactive)” on CSNK1A1L (human); “no effect (inactive)” on CLK2 (human); “no effect (inactive)” on CSNK1G2 (human). Moreover, the “kinase still bound, per cent of control” value on CSNK1D (human) was “no effect (inactive)”.

On to `Cc1ccc(O)cc1Nc1ccnc(Nc2cccc(C(N)=O)c2)n1`, for which the “kinase still bound, per cent of control” value (at CAMK2A (human); at NTRK3 (human); on TLK1 (human); at STK38L (human); on ITK (human); in test [1]) was “no effect (inactive)” in each case. In addition, the “kinase still bound, per cent of control” value on PRKAA1 (human) was “no effect (inactive)”; at RET (human), 0%; on TESK1 (human), “no effect (inactive)”; on MET (human), “no effect (inactive)”; on BRSK2 (human) it was “no effect (inactive)”; on PKN2 (human), “no effect (inactive)”. For the same molecule, the “kinase still bound, per cent of control” value at SRPK1 (human) is “no effect (inactive)”; on CSNK1D (human), 0%; at AAK1 (human), “no effect (inactive)”; at BMP2K (human) it was “no effect (inactive)”; on EPHA3 (human) it was 0%; on SRC (human) it was 0%.

As for `CN(C)c1ccc(-c2cc3ncccc3c(NCCCCN)n2)cc1`, the “kinase still bound, per cent of control” value at CSNK1G1 (human), on CAMK2A (human), on NTRK3 (human), on TLK1 (human), at MYLK2 (human) and on EPHA2 (human) was “no effect (inactive)” each time. In addition, the “kinase still bound, per cent of control” value at STK38L (human), at PRKAA1 (human), on TESK1 (human), at GSK3A (human), at CLK2 (human) and at BRSK2 (human) was “no effect (inactive)” in each case. Besides, at FLT1 (human), the “kinase still bound, per cent of control” value is “no effect (inactive)”.
